Experimental findings from BindingDB's records for doi:10.1021/jm00174a017 (Alter, 1991) are described below.

Molecules are shown by their SMILES.

The experiment in a line: Tested for inhibition of [3H]PAF binding to rabbit Platelet activating factor receptor.
The term Ki denotes the dissociation constant of the complex between target and ligand, obtained from inhibition or displacement. High values mean a looser hold on the target, low ones a stronger hold on the target. Compound `CCOC(=O)C1C(C)=NC(C)=C(C(=O)OCCSCC)C1C` (stereo not given) gave a Ki of 1000 nM.
To `COC(=O)C1C(C)=NC(C)=C(C(=O)OCCSc2ccccc2)C1C` (stereo not given) belongs 15 nM; to `COCCOC(=O)C1C(C)=NC(C)=C(C(=O)OCCSC)C1C` (stereo not given), 4410 nM.
Turning to `CCOC(=O)C1C(C)=NC(C)=C(C(=O)OCCSc2ccccc2)C1C` (stereo not given), the affinity corresponds to a Ki of 69 nM.
As for `CCOC(=O)C1C(C)=NC(C)=C(C(=O)OCCSC)C1C` (stereo not given), the figure is 1040 nM; as for `CCSCCOC(=O)C1=C(C)N=C(C)C(C(=O)OC)C1C` (stereo not given), 505 nM.
`CC1=NC(C)=C(C(=O)OCCSc2ccccc2)C(C)C1C(=O)OCC1CCCO1` (stereo not given) gave a Ki of 2090 nM.
As for `CCOC(=O)C1C(C)=NC(C)=C(C(=O)OCCSC)C1CC` (stereo not given), the figure is 1010 nM; as for `CC1=NC(C)=C(C(=O)OCCSc2ccccc2)C(C)C1C(=O)OC(C)C` (stereo not given), 913 nM; as for `COC(=O)C1C(C)=NC(C)=C(C(=O)OCCSC)C1C` (stereo not given), 603 nM.
